Tests used:
12 week old lambs = assay: Dexamethasone 0.25 mg/kg/day for 4 days in 12 week old lambs; assay type: in vivo, sheep; settings: after 48 hours of dexamethasone treatment
Procedure: (§1) FIG. 11A and FIG. 11B: Effect of 4 days of treatment with a glucocorticoid (dexamethasone, 0.25 mg/kg/day) in 12 week old lambs (filled circles, n=8) and in adult sheep (open circles, n=8) on (A) plasma NT-CNP and (B) change (?) in plasma alkaline phosphatase activity (ALP). Values are mean±SEM;
(§2) This differential response to dexamethasone was highly significant for both NT-CNP (F=5.4, p<0.001) and ALP (F=4.1, p=0.002). After 48 hours of dexamethasone treatment, plasma NT-CNP in lambs fell 30.8±3.5% from basal compared with 17.7±2.7% in adult sheep. Both the onset and offset of dexamethasone's action on NT-CNP preceded that of ALP (FIG. 11A and FIG. 11B).

adult sheep = assay: Dexamethasone 0.25 mg/kg/day for 4 days in adult sheep; assay type: in vivo; settings: after 48 hours of dexamethasone treatment
Procedure: as §1, §2

4 week old lambs = assay: Dexamethasone 0.25 mg/kg/day for 15 days in 4 week old lambs versus saline; assay type: in vivo, sheep
Procedure: FIG. 12A, FIG. 12B, FIG. 12C and FIG. 12D: Effect of a glucocorticoid (dexamethasone, 0.25 mg/kg/day) (filled circles, n=8) or saline control treatment (open circles, n=8), administered to 4 week old lambs for 15 days, on (FIG. 12A) plasma NT-CNP (FIG. 12B) plasma alkaline phosphatase activity (FIG. 12C) metacarpal length and (FIG. 12D) body weight. Values are mean±SEM; and
In order to study a possible linkage between changes in NT-CNP and growth velocity, a more prolonged study was undertaken in younger growing lambs.
We undertook a study in normal lambs. Lambs (n=16, aged 4 weeks) either received dexamethasone (0.25 mg/kg/day) or saline injections (controls) for 15 days. The predictive effect of a plasma NT-CNP concentration (drawn 24 hours after starting treatment) on subsequent growth inhibition (defined as growth velocity less than 5% of that of control lambs) was examined by ROC curve analysis (FIG. 13). […] The area under the curve (AUC) was 0.85.

J39 antisera = assay: Cross reactivities of the NT-CNP radioimmunoassay using the J39 antisera; assay type: binding, rabbit; settings: NT-CNP RIA
Procedure: Antiserum production: Human NT-CNP(1-15) (5 mg) was conjugated to 4.2 mg of bovine serum albumin (BSA, fraction V, GibcoBRL, Life Technologies) using 62.2 mg of 1-ethyl-3(3-dimethyaminopropyl) carbodiimide at pH 7 for 18 hours and dialysed against phosphate buffered saline. Rabbits were given a primary subcutaneous injection of the antigen after emulsification with an equal volume of complete Freunds adjuvant (Sigma Chemical Co., St Lois. Mo., USA). Subsequent injections using incomplete Freunds reagent were given at monthly intervals. Rabbits were bled two weeks after each injection and tested for binding of radioactive tracer and its displacement by NT-CNP (1-15) standards.
RIA for N-terminal CNP: NT-CNP(1-15)-Tyr^16 (5 μg) was iodinated using 0.5 mCi Na^125I in the presence of 10 μg chloramine-T in 5 μl 0.5M phosphate buffer, pH 7.5 for 30 seconds, followed by the addition of 50 μg cysteine, 25 μg BSA and 20 μg KI in 100 μl buffer. The resulting mixture was loaded onto a 10 m RP300 Brownlee column and eluted with a gradient from 0-60% acetonitrile in 49 mM KH2PO4 pH 2.9 over 30 min at 1 ml/min, collecting 0.5 ml fractions. The fraction containing the major peak of radioactive NT-CNP(1-15)-[^125I]Tyr^16 was used in the RIA. Peptide standards were made from synthetic human NT-CNP(1-19) taking into account the purity data supplied. […]

[1] = molecular target: antiserum J39, raised in rabbits to a synthetic peptide corresponding to the first 15 amino acids of human ProCNP(1-103), conjugated to BSA; assay: competitive radioimmunoassay with J39 antiserum
[2] = molecular target: antiserum J39, raised in rabbits to a synthetic peptide corresponding to the first 15 amino acids of human ProCNP(1-103), conjugated to BSA; assay: competitive radioimmunoassay: NT-CNP(1-19) standards displace NT-CNP(1-15)-[125I]Tyr16 from antiserum J39
[3] = 4 week old lambs, 0.25 mg/kg/day for 15 days

C[C@@H]1C[C@H]2[C@@H]3CCC4=CC(=O)C=C[C@]4(C)[C@@]3(F)[C@@H](O)C[C@]2(C)[C@@]1(O)C(=O)CO [dexamethasone]
fall in plasma NT-CNP from basal (12 week old lambs): 30.8±3.5%
fall in plasma NT-CNP from basal (adult sheep): 17.7±2.7%
effect on metacarpal elongation (4 week old lambs; [3]): pronounced decrease
time for NT-CNP to return to control levels after cessation of treatment (4 week old lambs; [3]): ≤ 24 h
time to fall in NT-CNP after starting treatment (4 week old lambs; [3]): ≤ 24 h
effect on body weight (4 week old lambs; 4 week old lambs, compared with saline treated lambs): small but significant effect
body weight difference between treatment groups at cessation of treatment (4 week old lambs; day 15, dexamethasone versus saline): not significantly different

hBNP32: peptide tested for cross reactivity in the NT-CNP radioimmunoassay
Cross reactivity (J39 antisera): < 0.05%

hproBNP(1-21): peptide tested for cross reactivity in the NT-CNP radioimmunoassay
Cross reactivity (J39 antisera): < 0.4%

B1: hCNP-53 (peptide)
peptide: DLRVDTKSRAAWARLLQEHPNARKYKGANKKGLSKGCFGLKLDRIGSMSGLGC
cross reactivity [1]: < 0.07%

KPGAPPKVPRTPPAEELAE [human NT-CNP(1-19)]
ED50 [2]: 0.11 nM

GLSKGCFGLKLDRIGSMSGLGC [hCNP-22]
cross reactivity [1]: < 0.03%
